Test results reported in patent US20240408218A1, “CONJUGATES OF GLUCAGON AND AMPK ACTIVATORS” (KØBENHAVNS UNIVERSITET, priority 2021, published 2024).

Columns and labels:
[1] = Body weight in diet-induced obesity (DIO) mice, 7 days treatment; format: in vivo; conditions: s.c. once daily
Procedure: C57BL6J male mice, in the following referred to as diet-induced obesity (DIO) mice, were maintained on a high-fat diet (58% energy from fat) and had, for each study, an average body weight of more than 45 gram prior to study start. Mice were either housed individually or double-housed. The mice were maintained on a 12 h dark-light cycle at 21-23° C. Compounds were administered subcutaneously once daily (between 2 pm-5 pm) and food intake (FI) and body weight (BW) measured at the corresponding time. For body composition, measures of fat and lean mass were performed prior to the study (1-3 days prior to study start) and on the final day of the study using an MRI scanner (EchoMRI). The group of mice injected with a vehicle (saline) served as the control group.

[2] = background, Myers et al. Science 2017; cited from earlier work

## NC(=O)c1ncn([C@@H]2O[C@H](CO)[C@@H](O)[C@H]2O)c1N [AICAR, 5-Aminoimidazole-4-carboxamide 1-β-D-ribofuranoside, reference compound]
[1]; FIG. 9, conjugate 100 nmol/kg or equimolar doses
  reduction in body weight (BW %) compared to control group: ~4%

## O[C@@H]1CO[C@H]2[C@@H]1OC[C@H]2Oc1nc2c(Cl)c(-c3ccc(-c4ccccc4)cc3)cnc2[nH]1 [MK-8722, (3R,3aR,6R,6aR)-6-((6-([1,1′-biphenyl]-4-yl)-7-chloro-3H-imidazo[4,5-b]pyridin-2-yl)oxy)hexahydrofuro[3,2-b]furan-3-ol, reference compound]
[1]; FIG. 3, conjugate 100 nmol/kg or equimolar doses
  reduction in body weight percentage (BW %): ~4%
[2]
  adverse effect halting use of the compound: induction of cardiac hypertrophy
